Target: T1, IRAK4 (Homo sapiens, UniProt Q9NWZ3)
T1 sequence (Q9NWZ3 1-460): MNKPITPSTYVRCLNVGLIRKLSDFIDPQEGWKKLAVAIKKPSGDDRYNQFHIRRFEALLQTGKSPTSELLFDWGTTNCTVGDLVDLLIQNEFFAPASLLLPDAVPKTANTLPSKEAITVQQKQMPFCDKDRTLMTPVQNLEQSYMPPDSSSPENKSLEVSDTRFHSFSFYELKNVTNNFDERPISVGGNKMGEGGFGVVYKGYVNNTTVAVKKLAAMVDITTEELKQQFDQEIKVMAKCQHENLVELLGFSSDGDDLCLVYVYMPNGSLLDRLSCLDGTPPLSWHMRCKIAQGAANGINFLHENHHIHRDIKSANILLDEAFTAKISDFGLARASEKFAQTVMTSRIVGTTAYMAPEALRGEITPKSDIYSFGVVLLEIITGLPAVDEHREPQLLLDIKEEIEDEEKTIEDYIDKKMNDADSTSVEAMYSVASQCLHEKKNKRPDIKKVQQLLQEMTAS
Experiment: c-ponatinib pulldown LC-MS/MS
Type: binding
Procedure, shortened: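 Read-out: interaction P-value combining Mascot scores, Phenyx scores and spectral counts (Fisher's method), plus fold reduction of median spectral counts on free-compound competition. Proteins were enriched from 10 mg cell lysate on c-ponatinib beads, then trypsin-digested for LC-MS/MS.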

SMILES: Cc1ccc(C(=O)Nc2ccc(CN3CCN(CCCN)CC3)c(C(F)(F)F)c2)cc1C#Cc1cnc2cccnn12 [c-ponatinib]
- Av. SC comp. (+ free ponatinib): 2.5
- Total SC comp. (+ free ponatinib): 10
- Av. SC (no competitor): 8.5
- Total SC (no competitor): 34
